Test results taken from PubChem BioAssay (NCI).
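Values below derive from 48-hour exposures of cells grown in 96-well plates, with endpoints linearly interpolated between the two concentrations bracketing the appropriate inhibition level. GI50 = concentration required for 50% inhibition of growth. At the TGI there is no net growth.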

Columns and labels:
Experiment in all cases: NCI anticancer screen, dose series, 48 h
K-562 leukemia = tested on: K-562 leukemia
SK-OV-3 ovarian = tested on: SK-OV-3 ovarian
SK-MEL-5 melanoma = tested on: SK-MEL-5 melanoma
HCC-2998 colon = tested on: HCC-2998 colon
SK-MEL-2 melanoma = tested on: SK-MEL-2 melanoma
SN12C renal = tested on: SN12C renal
A549 NSCLC = tested on: A549 NSCLC
SR leukemia = tested on: SR leukemia
HS 578T breast = tested on: HS 578T breast
BT-549 breast = tested on: BT-549 breast

Compound	TGI (K-562 leukemia)	TGI (SK-OV-3 ovarian)	TGI (SK-MEL-5 melanoma)	TGI (HCC-2998 colon)	TGI (SK-MEL-2 melanoma)	TGI (SN12C renal)	TGI (A549 NSCLC)	TGI (SR leukemia)	TGI (HS 578T breast)	GI50 (HS 578T breast)	GI50 (SK-OV-3 ovarian)	GI50 (SK-MEL-5 melanoma)	GI50 (SK-MEL-2 melanoma)	GI50 (SN12C renal)	GI50 (A549 NSCLC)	GI50 (BT-549 breast)	TGI (BT-549 breast)
CC(=O)NC1=C(C)C(=O)c2c(nc3n2CCC3O)C1=O (stereo not given)	44.3 µM	> 100 µM	> 100 µM	> 100 µM	42.8 µM	> 100 µM	> 100 µM	35 µM	–	–	–	–	–	–	–	–	–
CC1(C)[C@@H](Cn2cnc3c(=O)[nH]c(N)nc32)CC[C@@]1(C)CO	> 100 µM	> 100 µM	> 100 µM	> 100 µM	> 100 µM	> 100 µM	> 100 µM	–	> 100 µM	–	–	–	–	–	–	–	–
CCNC(=O)/C=C/CCC#Cc1ccc(-c2ccc(-c3cccs3)s2)s1	–	> 100 µM	> 100 µM	> 100 µM	> 100 µM	–	> 100 µM	> 100 µM	–	–	–	–	–	–	–	–	–
Oc1ccc2c(c1)CC[N+]1=C2CCC2CCCC21 (stereo not given)	–	> 100 µM	> 100 µM	> 100 µM	> 100 µM	> 100 µM	> 100 µM	–	–	–	–	–	–	–	–	–	–
CCOC(=O)c1c2c(n3ccc(NC(=O)OC(C)(C)C)cc13)C(=O)c1ncccc1C2=O	–	1.48 µM	0.388 µM	–	9.24 µM	1.21 µM	1.25 µM	–	4.65 µM	1.21 µM	0.236 µM	0.174 µM	0.44 µM	0.071 µM	0.186 µM	0.179 µM	2.02 µM
NCCNCCCCCCNC(=O)c1cccc2cc3ccccc3nc12	6.77 µM	–	13.4 µM	6.79 µM	10.2 µM	7.8 µM	5.63 µM	–	6 µM	–	–	–	–	–	–	–	25.2 µM
CCOP(=O)(OCC)/C(=C\N1C(=O)CC(=O)NC1=S)C(=O)OC	–	> 100 µM	> 100 µM	> 100 µM	> 100 µM	> 100 µM	> 100 µM	–	–	–	–	–	–	–	–	–	> 100 µM
CCOC(=O)C(=O)C1C(=O)Nc2ccccc21 (stereo not given)	> 100 µM	–	–	> 100 µM	> 100 µM	> 100 µM	> 100 µM	–	–	–	–	–	–	–	–	–	–
CCOC(=O)CCc1c(C(=O)OCC)[nH]c(/C=C2\NC(=O)C(C)=C2CC)c1C	> 100 µM	48.3 µM	–	–	42.5 µM	> 100 µM	> 100 µM	–	–	–	–	–	–	–	–	–	–
c1cc(C[S+]2CCCC2)ccc1C[S+]1CCCC1	> 100 µM	> 100 µM	> 100 µM	> 100 µM	–	> 100 µM	> 100 µM	> 100 µM	> 100 µM	–	–	–	–	–	–	–	> 100 µM
C=C(CC(=O)Nc1ccc(C(=O)OC)o1)C(=O)OC	–	86.3 µM	43.1 µM	–	46.7 µM	45.2 µM	35.8 µM	–	> 100 µM	–	–	–	–	–	–	–	–
C1#Cc2ccccc2OCCOc2ccccc2C#Cc2ccccc2OCCOc2ccccc21	24.3 µM	–	58.7 µM	–	> 100 µM	> 100 µM	> 100 µM	–	64.3 µM	–	–	–	–	–	–	–	81.9 µM
N/N=C1/C(=N/O)CCc2nonc21	> 100 µM	> 100 µM	> 100 µM	> 100 µM	> 100 µM	> 100 µM	> 100 µM	> 100 µM	> 100 µM	–	–	–	–	–	–	–	–
CC(=NCCN(CCN=C(C)c1c(O)cc(C)oc1=O)CCN=C(C)c1c(O)cc(C)oc1=O)c1c(O)cc(C)oc1=O	> 100 µM	> 100 µM	> 100 µM	> 100 µM	–	> 100 µM	> 100 µM	> 100 µM	> 100 µM	–	–	–	–	–	–	–	–
O=C1OC2(C(F)(F)F)Oc3ccccc3CN2C12CCCCC2 (stereo not given)	52.6 µM	81.7 µM	–	> 100 µM	–	> 100 µM	> 100 µM	74.8 µM	–	–	–	–	–	–	–	–	> 100 µM
OCC(O)C1OC2CC1Nc1ccccc1N2 (stereo not given)	> 100 µM	> 100 µM	> 100 µM	> 100 µM	> 100 µM	> 100 µM	> 100 µM	–	> 100 µM	–	–	–	–	–	–	–	–
S=C1C(=Nc2ccccc2)N(c2ccccc2)/C(=N\c2ccccn2)N1c1ccccc1	> 100 µM	36 µM	27.2 µM	27.1 µM	24.6 µM	24 µM	38.6 µM	60.8 µM	39.5 µM	–	–	–	–	–	–	–	–
CCOC(=O)/C(C#N)=C/c1ccc(CO)o1	> 100 µM	> 100 µM	> 100 µM	> 100 µM	–	> 100 µM	> 100 µM	> 100 µM	> 100 µM	–	–	–	–	–	–	–	–
COc1ccc(/C=C2\CC3C4CC=C5C[C@@H](O)CC[C@]5(C)C4CC[C@]3(C)\C2=N\O)cc1OC (stereo not given in full)	> 100 µM	> 100 µM	45.1 µM	> 100 µM	42.3 µM	> 100 µM	> 100 µM	–	> 100 µM	–	–	–	–	–	–	–	> 100 µM
COc1ccc(Oc2nc3ccc(C(F)(F)F)cc3nc2-c2ccccc2)cc1	> 100 µM	> 100 µM	> 100 µM	> 100 µM	> 100 µM	> 100 µM	–	> 100 µM	> 100 µM	–	–	–	–	–	–	–	–
[N-]=[N+]=NC1CC(n2cc(COCC(F)(F)F)c(=O)[nH]c2=O)OC1CO (stereo not given)	> 100 µM	> 100 µM	> 100 µM	> 100 µM	> 100 µM	> 100 µM	> 100 µM	–	–	–	–	–	–	–	–	–	–
CN1C/C(=C\c2ccc(Cl)cc2)C(=O)/C(=C/c2ccc(Cl)cc2)C1	> 100 µM	–	> 26.5 µM	> 100 µM	> 100 µM	> 100 µM	> 100 µM	5.47 µM	> 100 µM	–	–	–	–	–	–	–	–
C[C@@H]1C[C@]2(C[C@@H](C)[C@H]3C(C[C@@]4(C)CCC[C@@H]5C6=C[C@H](CCC34C)OC6=CC(=O)OC5(C)C)O2)OC1=O (stereo not given in full)	> 51.5 µM	> 51.5 µM	> 51.5 µM	> 51.5 µM	> 51.5 µM	> 51.5 µM	> 51.5 µM	–	–	–	–	–	–	–	–	–	–
CC(NC1=NCCO1)c1cccc([N+](=O)[O-])c1 (stereo not given)	> 100 µM	> 100 µM	> 100 µM	> 100 µM	> 100 µM	> 100 µM	> 100 µM	> 100 µM	> 100 µM	–	–	–	–	–	–	–	–
Cc1nccn1S(=O)(=O)c1ccc(Br)cc1Br	> 100 µM	> 100 µM	43.9 µM	–	55 µM	> 100 µM	> 100 µM	78.3 µM	> 100 µM	–	–	–	–	–	–	–	> 100 µM
